Test results reported in patent publication US20250282746A1, “HALOGEN-SUBSTITUTED ISOINDOLINE COMPOUND AND USE THEREOF” (CHENGDU FENDI PHARMACEUTICAL CO., LTD., priority 2022, published 2025).
Read-outs that look alike come from different tables or passages of the source.

How the values were obtained:
[1] = test system: MV-4-11 cells; assay: Antiproliferative activity against MV-4-11 cells (CellTiter-Glo, 72 h); assay type: cell-based; conditions: Homo sapiens, read-out: Antiproliferative activity IC50
Experimental: MV411 cells in the logarithmic growth phase were diluted in a medium (RPMI+10% FBS) and plated at 5,000 cells/well in 96-well whole black plates (WHB) with 50 μL/well. After plating, the plates were incubated in an incubator at 5% CO2 and 37° C. for 24 h before the compounds were added. The compounds were prepared into a 10 mM stock solution in DMSO and diluted in a culture medium to the desired concentrations (a final DMSO concentration of 0.2%). […] The plates were incubated at 5% CO2 and 37° C. for 72 h. After the incubation was complete, the plates were equilibrated at room temperature for 30 min. CellTiter-Glo® Reagent (Promega G7573) was added at 100 μL/well. The plates were shaken for 12 min on a microplate shaker. The luminescence value was measured at room temperature by the GloMax navigator (Promega GM2010).

[2] = biological target: T1, GSPT1 protein (Homo sapiens, UniProt P15170); assay: Degradation of GSPT1 protein in NB-4 cells (Western blot); assay type: cell-based; conditions: read-out: GSPT1 degradation
T1 construct: The whole cell lysate was prepared using a RIPA lysis buffer; endogenous in cells; host or cells: NB-4 cells
Experimental: 150 μL of DMSO and the compounds (1 μM) were added, and the mixture was incubated in an incubator at 5% CO2 and 37° C. for 6 h. The cells were centrifuged, and the culture medium was discarded. PBS was added for washing and then discarded. The whole cell lysate was prepared using a RIPA lysis buffer containing a protease inhibitor cocktail and a phosphatase inhibitor, and incubated on ice for 30 min. The mixture was centrifuged, and the cell debris was discarded. The whole cell lysate supernatant was collected and transferred to a fresh EP tube. Samples were prepared using a loading buffer after a BCA protein assay. The samples were incubated in a metal bath at 100° C. for 10 min.
The samples were electrophoretically separated from proteins on a 4-20% precast gel (SDS-PAGE gel), transferred to a PVDF membrane, blocked with 5% NFDM/TBST for 1 h at room temperature, co-incubated overnight at 4° C. with the primary antibody, and co-incubated for 2 h at room temperature with the secondary antibody on the next day. The signals were detected on the […]™ imaging system.

T1 sequence (P15170 whole entry): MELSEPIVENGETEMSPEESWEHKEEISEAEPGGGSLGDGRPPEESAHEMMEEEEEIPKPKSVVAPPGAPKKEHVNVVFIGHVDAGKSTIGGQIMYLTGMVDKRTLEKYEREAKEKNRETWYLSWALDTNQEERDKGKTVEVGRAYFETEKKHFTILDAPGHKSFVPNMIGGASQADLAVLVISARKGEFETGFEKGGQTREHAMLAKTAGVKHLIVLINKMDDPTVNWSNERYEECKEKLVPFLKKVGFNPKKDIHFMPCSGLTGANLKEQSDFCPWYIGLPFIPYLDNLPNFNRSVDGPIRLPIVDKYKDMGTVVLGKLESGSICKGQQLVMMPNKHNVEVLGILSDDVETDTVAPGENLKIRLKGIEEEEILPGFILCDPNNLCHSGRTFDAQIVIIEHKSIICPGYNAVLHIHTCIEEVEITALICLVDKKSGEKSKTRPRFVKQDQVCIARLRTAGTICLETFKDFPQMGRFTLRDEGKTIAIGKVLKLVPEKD

Row | Structure (SMILES) | IC50 ([1]; MV4-11, MV-4-11 cells, 72 h) [nM] | inhibition at 1 µM ([2]; NB-4 cells, compound 1 μM, 6 h) [%] | IC50 ([1]; MV4-11, 72 h) [nM] | inhibition at 1 µM ([2]; NB-4, 6 h) [%]
1 | O=C1CCC(N2Cc3c(ccc(CNC(=O)c4ccc(Cl)cc4Cl)c3F)C2=O)C(=O)N1 (stereo not drawn) [FDAB-50] | 1 to 10 | > 80 |  | 
2 | CC(C)(C)OC(=O)NCc1cc2c(cc1F)C(=O)N(C1CCC(=O)NC1=O)C2 (stereo not drawn) [FDAB-5] | > 1000 | < 25 |  | 
3 | CCC#CC(=O)NCc1cc2c(cc1F)C(=O)N(C1CCC(=O)NC1=O)C2 (stereo not drawn) [FDAB-63] | > 1000 | < 25 |  | 
4 | COc1cc(C)ccc1C(=O)NCc1ccc2c(c1F)CN(C1CCC(=O)NC1=O)C2=O (stereo not drawn) [FDAB-104] | > 1000 | < 25 |  | 
5 | O=C(C#CC1CC1)NCc1cc2c(cc1F)C(=O)N(C1CCC(=O)NC1=O)C2 (stereo not drawn) [FDAB-64] | 100 to 1000 | 50 to 80 |  | 
6 | O=C(CCCCN1CCCCC1)NCc1ccc2c(c1F)CN(C1CCC(=O)NC1=O)C2=O (stereo not drawn) [FDAB-159] | > 1000 | < 25 |  | 
7 | NS(=O)(=O)c1cc(C(=O)NCc2ccc3c(c2F)CN(C2CCC(=O)NC2=O)C3=O)ccc1Cl (stereo not drawn) [FDAB-115] | > 1000 | < 25 |  | 
8 | C#Cc1ccc(C(=O)NCc2ccc3c(c2F)CN(C2CCC(=O)NC2=O)C3=O)cc1 (stereo not drawn) [FDAB-96] | 1 to 10 | > 80 |  | 
9 | NCc1cc(F)c2c(c1)CN(C1CCC(=O)NC1=O)C2=O (stereo not drawn) [FDAB-9] | > 1000 | < 25 |  | 
10 | O=C(Cc1c[nH]c2ccc(F)cc12)NCc1ccc2c(c1F)CN(C1CCC(=O)NC1=O)C2=O (stereo not drawn) [FDAB-134] | 1 to 10 | 50 to 80 |  | 
11 | CC(C)(C)Oc1ccc(C(=O)NCc2ccc3c(c2F)CN(C2CCC(=O)NC2=O)C3=O)cc1 (stereo not drawn) [FDAB-103] | < 1 | > 80 |  | 
12 | O=C1CCC(N2Cc3c(ccc(CNC(=O)c4ccc(Cl)c(O)c4)c3Cl)C2=O)C(=O)N1 (stereo not drawn) [FDAB-79] | 10 to 100 | > 80 |  | 
13 | O=C1CCC(N2Cc3cc(CNC(=O)c4nc5ccccc5[nH]4)c(F)cc3C2=O)C(=O)N1 (stereo not drawn) [FDAB-33] | > 1000 | < 25 |  | 
14 | O=C1CCC(N2Cc3c(ccc(CNC(=O)c4ccc(Cl)c(F)c4)c3Cl)C2=O)C(=O)N1 (stereo not drawn) [FDAB-118] | 10 to 100 | 50 to 80 |  | 
15 | O=C1CCC(N2Cc3c(ccc(CNC(=O)c4ccc(Cl)c(O)c4)c3F)C2=O)C(=O)N1 (stereo not drawn) [FDAB-83] | 10 to 100 | > 80 |  | 
16 | [2H]c1c([2H])c(C(=O)NCc2ccc3c(c2F)CN(C2CCC(=O)NC2=O)C3=O)c([2H])c([2H])c1Cl (stereo not drawn) [FDAB-18] |  |  | 10 to 100 | > 80
17 | CCc1ccc(C(=O)NCc2ccc3c(c2F)CN(C2CCC(=O)NC2=O)C3=O)cc1 (stereo not drawn) [FDAB-90] | 1 to 10 | > 80 |  | 
18 | O=C1CCC(N2Cc3c(ccc(CNC(=O)c4ccc5c(c4)CC5)c3F)C2=O)C(=O)N1 (stereo not drawn) [FDAB-98] | 1 to 10 | > 80 |  | 
19 | CS(=O)(=O)c1ccc(C(=O)NCc2ccc3c(c2F)CN(C2CCC(=O)NC2=O)C3=O)c(N)c1 (stereo not drawn) [FDAB-114] | > 1000 | < 25 |  | 
20 | O=C1CCC(N2Cc3c(CNC(=O)C(F)(F)c4ccc(Cl)cc4)cc(F)cc3C2=O)C(=O)N1 (stereo not drawn) [FDAB-171] | 100 to 1000 | < 25 |  | 
21 | O=C1CCC(N2Cc3cc(CNC(=O)c4cc5cc(Cl)ccc5o4)cc(F)c3C2=O)C(=O)N1 (stereo not drawn) [FDAB-22] | > 1000 | < 25 |  | 
22 | CCCCCCCCCCCCSC(=S)SC(C)(C)C(=O)NCc1ccc2c(c1F)CN(C1CCC(=O)NC1=O)C2=O (stereo not drawn) [FDAB-163] | > 1000 | < 25 |  | 
23 | Cc1ccc(C(=O)NCc2ccc3c(c2Cl)CN(C2CCC(=O)NC2=O)C3=O)cc1 (stereo not drawn) [FDAB-76] | > 1000 | < 25 |  | 
24 | O=C(CSc1ccncc1)NCc1ccc2c(c1F)CN(C1CCC(=O)NC1=O)C2=O (stereo not drawn) [FDAB-155] | > 1000 | < 25 |  | 
